Laboratory results taken from patent publication US9963445B2, “Chemical compounds” (SYNGENTA PARTICIPATIONS AG, priority 2013, dated 2018).

Assays:
Type in all cases: in vivo
[1] = test system: Alopecurus myosuroides; assay: Pre-emergence herbicidal activity, glasshouse pot test; settings: pre-emergence spray, rate 1000 g/ha, evaluated after 13 days, scale 0-5
Procedure, shortened: (§1)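 Glasshouse conditions were 24/16 °C day/night with 14 h light and 65% humidity throughout. Soil was sprayed before emergence, one day after sowing, using an acetone/water (50:50) formulation with 0.5% Tween 20; injury was scored 0–5 after 13 days.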

[2] = test system: Amaranthus retroflexus; assay: as above; settings: pre-emergence spray, rate 1000 g/ha, evaluated after 13 days, scale 0-5
Procedure, shortened: as §1

[3] = test system: Echinochloa crus-galli; assay: as above; settings: pre-emergence spray, rate 1000 g/ha, evaluated after 13 days, scale 0-5
Procedure, shortened: as §1

[4] = test system: Setaria faberi; assay: as above; settings: pre-emergence spray, rate 1000 g/ha, evaluated after 13 days, scale 0-5
Procedure, shortened: as §1

[5] = test system: Solanum nigrum; assay: as above; settings: pre-emergence spray, rate 1000 g/ha, evaluated after 13 days, scale 0-5
Procedure, shortened: as §1

[6] = test system: zea mays; assay: as above; settings: pre-emergence spray, rate 1000 g/ha, evaluated after 13 days, scale 0-5
Procedure, shortened: as §1

[7] = test system: Alopecurus myosuroides; assay: Post-emergence herbicidal activity, glasshouse pot test; set-up: key: 0 = no damage to plant, 5 = total damage to plant; settings: Application post-emergence, rate 1000 g/ha, evaluated after 13 days
Procedure, shortened: (§2)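 After 8 days of glasshouse growth at 24/16 °C day/night, potted plants receive a foliar spray of the formulated compound (0.5% Tween 20 in acetone/water). They are then watered twice daily under unchanged conditions, and phytotoxicity is scored 0–5 after 13 days.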

[8] = test system: Amaranthus retroflexus; assay: as above; set-up: key: 0 = no damage to plant, 5 = total damage to plant; settings: Application post-emergence, rate 1000 g/ha, evaluated after 13 days
Procedure, shortened: as §2

[9] = test system: Echinochloa crus-galli; assay: as above; set-up: key: 0 = no damage to plant, 5 = total damage to plant; settings: Application post-emergence, rate 1000 g/ha, evaluated after 13 days
Procedure, shortened: as §2

[10] = test system: Setaria faberi; assay: as above; set-up: key: 0 = no damage to plant, 5 = total damage to plant; settings: Application post-emergence, rate 1000 g/ha, evaluated after 13 days
Procedure, shortened: as §2

[11] = test system: zea mays; assay: as above; set-up: key: 0 = no damage to plant, 5 = total damage to plant; settings: Application post-emergence, rate 1000 g/ha, evaluated after 13 days
Procedure, shortened: as §2

[12] = test system: Solanum nigrum; assay: as above; settings: Application post-emergence, rate 1000 g/ha, evaluated after 13 days
Description: Seeds of a variety of test species were sown in standard soil in pots. After 8 days cultivation (post-emergence) under controlled conditions in a glasshouse (at 24/16° C., day/night; 14 hours light; 65% humidity), the plants were sprayed with an aqueous spray solution derived from the formulation of the technical active ingredient in acetone/water (50:50) solution containing 0.5% Tween 20 (polyoxyethelyene sorbitan monolaurate, CAS RN 9005-64-5). The test plants were then grown in a glasshouse under controlled conditions (at 24/16° C., day/night; 14 hours light; 65% humidity) and watered twice daily. After 13 days, the test was evaluated (5=total damage to plant; 0=no damage to plant).
ABUTH=Abutilon theophrasti; SOLNI=Solanum nigrum; AMARE=Amaranthus retroflexus; SETFA=Setaria faberi; ALOMY=Alopecurus myosuroides; ECHCG=Echinochloa crus-galli, ZEAMX=zea mays.

| Compound | ALOMY damage score, application pre-emergence [1] | AMARE damage score, application pre-emergence [2] | ECHCG damage score, application pre-emergence [3] | SETFA damage score, application pre-emergence [4] | SOLNI damage score, application pre-emergence [5] | ZEAMX damage score, application pre-emergence [6] | ALOMY herbicidal damage score [7] | AMARE herbicidal damage score [8] | ECHCG herbicidal damage score [9] | SETFA herbicidal damage score [10] | ZEAMX herbicidal damage score [11] | SOLNI herbicidal damage score [12] |
| --- | --- | --- | --- | --- | --- | --- | --- | --- | --- | --- | --- | --- |
| CC1=C(Cl)C(=O)N(c2ccc(C)cn2)C1O (stereo not drawn) [AF69] | 3 | 5 | 4 | 4 | 5 | 1 | 5 | 5 | 5 | 5 | 3 | 5 |
| CC1=C(Cl)C(=O)N(c2ccc(C(F)(F)F)cn2)C1O (stereo not drawn) [AF70] | 3 | 5 | 3 | 5 | 5 | 0 | 5 | 5 | 5 | 5 | 2 | 5 |
| CC1=C(Br)C(=O)N(c2ccc(C(F)(F)F)cn2)C1O (stereo not drawn) [AG2] | 3 | 5 | 1 | 4 | 4 | 0 | 4 | 5 | 5 | 5 | 2 | 5 |
